Biological target: Mitogen-activated protein kinase 7 (Homo sapiens, UniProt Q13164)
Experiment: Inhibition of ERK5 in human SN12C cells assessed as reduction in luminescence signal by bright glo reagent based luminescent cell assay

Mitogen-activated protein kinase 7, sequence (Q13164 whole entry): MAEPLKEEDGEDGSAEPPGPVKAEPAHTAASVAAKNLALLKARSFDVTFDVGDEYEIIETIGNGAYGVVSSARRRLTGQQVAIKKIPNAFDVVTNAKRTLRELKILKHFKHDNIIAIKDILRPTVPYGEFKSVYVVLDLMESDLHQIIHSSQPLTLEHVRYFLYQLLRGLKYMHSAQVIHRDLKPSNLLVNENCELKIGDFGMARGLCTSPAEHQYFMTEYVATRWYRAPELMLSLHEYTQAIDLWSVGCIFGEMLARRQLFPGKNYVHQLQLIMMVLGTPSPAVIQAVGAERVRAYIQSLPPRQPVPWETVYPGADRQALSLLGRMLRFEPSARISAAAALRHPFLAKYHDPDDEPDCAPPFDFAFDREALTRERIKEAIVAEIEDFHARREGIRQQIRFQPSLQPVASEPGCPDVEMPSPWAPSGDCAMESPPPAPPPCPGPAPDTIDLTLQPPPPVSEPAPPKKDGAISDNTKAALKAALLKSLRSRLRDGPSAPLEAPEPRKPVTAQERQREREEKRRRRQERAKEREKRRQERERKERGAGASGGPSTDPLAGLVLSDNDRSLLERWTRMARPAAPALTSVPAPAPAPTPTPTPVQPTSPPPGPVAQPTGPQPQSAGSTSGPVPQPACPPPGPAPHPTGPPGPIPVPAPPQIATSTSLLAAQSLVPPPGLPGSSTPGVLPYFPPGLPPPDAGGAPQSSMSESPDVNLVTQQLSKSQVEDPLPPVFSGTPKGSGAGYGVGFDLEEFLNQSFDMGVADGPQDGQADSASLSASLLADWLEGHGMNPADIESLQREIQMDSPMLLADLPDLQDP

Row | IC50 [nM] | Structure (SMILES)
1 | 17 | Nc1cc(OC(F)(F)F)ccc1C(=O)N1CCC(c2c[nH]c3ncc([C@H]4CC[C@H](O)CC4)nc23)CC1
2 | 21 | Nc1cc(OC(F)(F)F)ccc1C(=O)N1CCC(c2c[nH]c3ncc(C4CCOC4)nc23)CC1 (configuration not stated)

Source: ChEMBL document CHEMBL6153058, “Pyrrolopyrazine Compounds as ERK5 Inhibitors for Treating Cancer” (ACS Med Chem Lett, 2025)
